Assay results from paper PMC6473556, “Targetable Mechanical Properties by Switching between Self‐Sorting and Co‐assembly with In Situ Formed Tripodal Ketoenamine Supramolecular Hydrogels” (Chemnanomat, 2018).

Legend:
Assay type in all cases: physicochemical
[1] = Critical gel concentration, inverted vial method; conditions: 0.5 ml water
Procedure: 3.3 Setting gel using the ex situ prepared compound (gels R1 to R8 inclusively):
This procedure describes the method used in a typical setting of the hydrogel at 2 wt% using the previously prepared synthesised compound.
The gel ligand (0.1 g) was suspended in water, to this suspension sodium hydroxide was added (0.05 g, 1.25 mmol). Sonication and gentle heating was used to ensure the ligand had completely dissolved giving a solution with a pH of 9 – 10. To this solution glucono delta-lactone (GdL) (0.08 g, 0.45 mmol) was added and the solution was shaken until the GdL had […]
3.4 Setting gel R9 using the ex situ prepared compound:
This procedure describes the method used in a typical setting of the hydrogel R9 at 2 wt% using the previously prepared synthesised compound R9.
The synthesised compound R9 (0.1 g, 0.21 mmol) was suspended in water (5 ml), to this suspension sodium hydroxide was added (0.05 g, 1.25 mmol). Sonication and gentle heating was used to ensure the ligand had completely dissolved giving a solution with a pH of 9 – 10.
To this solution conc. Hydrochloric acid (0.4 ml) was rapidly added instantly producing a […]
3.5 Critical gel concentration (CGC):
Critical gel concentration was determined using the inverted vial method in 2 ml sample vials using 0.5 ml of water. This method can often give lower CGC values than are determined using a rheometer due to the low volume of solution and the high surface tension within the vials.

[2] = Rheometry of the gels (time, frequency and stress sweeps); conditions: gel at 40 mM gelator concentration, standard deviation in brackets; for Yield stress: rounded to nearest 10; for G′ / G′′: rounded to nearest 100
Procedure: Another observation is the difference in transparency between the gels (Figure 1). Gels R2 and R6 are noticeably more transparent than the other gels. This transparency is a result of gels R2 and R6 having narrower fibres and therefore scattering less light (Figure S59). […] The responses of the nine presented gels to mechanical stimulus were determined using rheometry (Table 1). Although differences in mechanical properties are apparent when comparing one gel to another the difference between the same gel prepared ex situ and in situ is negligible (see ESI). Once a constant value for G′ had been recording during the time sweep experiments, the gelatinous nature of the materials was confirmed using frequency sweep rheometry.
For all gels the G′ and G“ values remained constant over a frequency range of 0.1–100 Hz, with the value of G′ several times the value recorded for G” (Figure 3). To examine the gels’ non‐linear rheological behaviour stress sweep experiments were conducted. The defining point of the experiment is the yield stress, below which G′ remains essentially constant, but above which the gel begins to flow (see ESI).

[3] = Gelation on lowering the pH with glucono-delta-lactone; conditions: in situ reaction at high pH after addition of GdL

Row | CGC (critical gel concentration) [1] [Wt%] | Yield stress [2] | G′ [2] | G′′ [2] | Gelation [3] | SMILES
1 | 0.3 | 140(10) μNm | 9000(200) Pa | 2300(100) Pa |  | O=C1C(=CNc2ccc(C(=O)O)cc2)C(=O)C(=CNc2ccc(C(=O)O)cc2)C(=O)C1=CNc1ccc(C(=O)O)cc1 [R1]
2 | 0.5 | 70(20) μNm | 9600(100) Pa | 2500(200) Pa |  | Cc1cc(NC=C2C(=O)C(=CNc3ccc(C(=O)O)c(C)c3)C(=O)C(=CNc3ccc(C(=O)O)c(C)c3)C2=O)ccc1C(=O)O [R8]
3 | 0.9 | 20(40) μNm | 1200(100) Pa | 300(300) Pa |  | O=C1C(=CNc2ccc(O)cc2)C(=O)C(=CNc2ccc(O)cc2)C(=O)C1=CNc1ccc(O)cc1 [R9]
4 | 0.4 | 40(10) μNm | 9300(200) Pa | 2100(200) Pa |  | O=C1C(=CNc2ccc(C(=O)O)cc2O)C(=O)C(=CNc2ccc(C(=O)O)cc2O)C(=O)C1=CNc1ccc(C(=O)O)cc1O [R4]
5 | 0.1 | 250(30) μNm | 15400(300) Pa | 2600(200) Pa |  | O=C1C(=CNc2cc(C(=O)O)cc(C(F)(F)F)c2)C(=O)C(=CNc2cc(C(=O)O)cc(C(F)(F)F)c2)C(=O)C1=CNc1cc(C(=O)O)cc(C(F)(F)F)c1 [R6]
6 |  |  |  |  | no gelation | O=C(O)CCCCCNC=C1C(=O)C(=CNCCCCCC(=O)O)C(=O)C(=CNCCCCCC(=O)O)C1=O [R10]
7 | 0.4 | 80(20) μNm | 10800(200) Pa | 3100(400) Pa |  | O=C1C(=CNc2cc(C(=O)O)ccc2O)C(=O)C(=CNc2cc(C(=O)O)ccc2O)C(=O)C1=CNc1cc(C(=O)O)ccc1O [R5]
8 | 0.2 | 80(20) μNm | 12700(100) Pa | 3300(200) Pa |  | O=C1C(=CNc2ccc(Cl)c(C(=O)O)c2)C(=O)C(=CNc2ccc(Cl)c(C(=O)O)c2)C(=O)C1=CNc1ccc(Cl)c(C(=O)O)c1 [R2]
9 | 0.5 | 140(20) μNm | 10200(300) Pa | 2100(100) Pa |  | COc1cc(NC=C2C(=O)C(=CNc3ccc(C(=O)O)c(OC)c3)C(=O)C(=CNc3ccc(C(=O)O)c(OC)c3)C2=O)ccc1C(=O)O [R3]
10 | 0.5 | 90(30) μNm | 8800(200) Pa | 2100(300) Pa |  | COc1c(NC=C2C(=O)C(=CNc3cccc(C(=O)O)c3OC)C(=O)C(=CNc3cccc(C(=O)O)c3OC)C2=O)cccc1C(=O)O [R7]
